Measurements taken from patent publication US20230329245A1, “COMPOSITIONS AND METHODS OF USE THEREOF” (Curie Co. Inc., priority 2020, published 2023).
Several values for one entry are separate records, joined by “and”; a condition that tells them apart may be missing. Equal entries are not always repeated. Where two headings read alike, the source gives them in different places.

What was measured:
Type in all cases: cell-based
[1] = system: E. coli ATCC 8739; assay: MIC determination, E. coli
Protocol: (§1) A variant form of Streptomyces mobaraensis transglutaminase having the amino acid sequence depicted in SEQ ID NO:6 was prepared by literature methods with a hexa-his-tag to aid in purification (Javitt, et al. (2017) BMC Biotechnol. 17:23). The cells were grown in shake flasks, lysed by homogenization, and the Tgase variant (SEQ ID NO:6) was isolated from the cell debris by centrifugation. The resulting semi-purified enzyme (clarified lysate) were compared on an SDS-PAGE gel, by spectroscopy, and activity for concentration of active enzyme. The Tgase variant (SEQ ID NO:6) was further purified by affinity column on a Ni-IMAC resin prior to MIC assay. Tgase activity was measured in the examples herein using a colorimetric hydroxamate activity assay (Folk and Cole (1965) J Biol Chemistry 240(7):2951-2960). The enzyme was diluted to a working stock concentration of 2 mg/mL in CAMHB or RPMI media (bacterial or fungal media). This was then 2-fold serial diluted ten times in the appropriate media in a 96-well master plate to generate 2× starting concentrations for MIC testing.
(§2) Strains were acquired from the American Type Culture Collection (ATCC) (Manassas, VA) and maintained as −80° C. frozen glycerol stocks: S. aureus ATCC 6538, E. coli ATCC 8739, P. aeruginosa ATCC 9027, C. albicans ATCC 10231, and A. brasiliensis ATCC 16404. B. subtilis BGSC 1A1276 was purchased from the Bacillus Genetic Stock Center (BGSC) (Columbus, OH) and maintained as −80° C. frozen glycerol stock. Cation-adjusted Mueller-Hinton broth (CAMHB) at pH 7.3 was used for testing with bacterial species (unless otherwise noted), while RPMI 1640 media buffered with 0.165 M MOPS at pH 7.0 was used for testing with all fungal species.
For MIC determination, bacterial strains (S. aureus ATCC 6538, E. coli ATCC 8739, P. aeruginosa ATCC 9027) were grown overnight on Tryptic Soy Agar (TSA) plates at 37° C. A few colonies of each strain were collected with a sterile swab and used to make a McFarland 0.5 standard solution (approximately 1×10^8 CFU/mL) in sterile PBS. The McFarland solution was then diluted 1:100 in CAMHB to generate the inoculum, and 50 μL of this inoculum was combined with 50 μL of the 2× test article in a 96-well plate for a final concentration of 1×. All test conditions were performed in duplicate. The bacterial-strain MIC 96-well plates were incubated at 37° C. for 18 to 20 hours. MIC is defined as the lowest concentration of a compound in which no visible growth is observed.

[2] = system: E. coli ATCC 8739; assay: Growth inhibition of E. coli culture in LB (OD600 / BacTiter-Glo); conditions: for inhibition at 3000 µg/mL / inhibition at 500 µg/mL: Escherichia coli, ATCC8739; for inhibition at 3000 µg/mL / growth inhibition / growth inhibition in the presence of 400 μg/mL Tgase SEQ ID NO: 6 / inhibition at 500 µg/mL: E. coli ATCC 8739
Protocol: (§3) For MIC determination of bacterial cultures, E. coli ATCC 8739, DH5-alpha, DH10-beta, and B. subtilis BGSC 1A1276 was grown overnight (16-18 hours) in LB broth at 37° C. The following day, the cell density of the saturated cultures was calculated using OD600 and cultures were diluted to 10^4 to 10^6 CFU/mL in sterile LB media to generate the inoculum, and 90 μL of the inoculum was combined with 10 μL of serially diluted Tgase SEQ ID NO:1 at a range of 0.0001-0.01 weight percent in the presence or absence of 0.003% lysozyme (100-fold lower than the effective concentration). Growth curves were measured by OD600 on a BioTek® Synergy Plate Reader. Optionally, the following day, a cell viability assay such as BacTiter-Glo™ (Promega®) following manufacturer's protocols) could be used to assess cell viability. A decrease in OD600 or luminescence indicated a decrease in cell viability. Results are presented as a percent reduction in cell count relative to an untreated culture. All test conditions were performed in triplicate.
E. coli ATCC 8739 was grown overnight in LB broth at 37° C. The following day, the cell density of the saturated cultures was calculated using OD600 and cultures were diluted to 10^4 to 10^6 CFU/mL in sterile LB media to generate the inoculum, and 90 μL of the inoculum was combined with 10 μL of serially diluted Tgase SEQ ID NO:6 at a range of 0.001-0.1 weight percent in the presence or absence of chemical preservatives at concentrations above and below the calculated MIC value. A single concentration (at the MIC) of the chemical preservative and static concentrations of Tgase SEQ ID NO:6 (400 μg/mL, 0.04% w/v) are presented in Table 8 as representative examples. Growth curves were measured by OD600 on a BioTek® Synergy Plate Reader and a cell viability assay (BacTiter-Glo™, Promega®, following manufacturer's protocols) was used to assess cell viability. A decrease in OD600 or luminescence indicated a decrease in cell viability. Results are presented as a percent reduction in cell count relative to an untreated culture. […]

[3] = system: A. brasiliensis ATCC 16404; assay: MIC determination, A. brasiliensis; conditions: RPMI 1640 pH 7.0, 25° C., up to 7 days, duplicate
Protocol: as §1, with “testing. […]” for “testing.”
(§4) C. albicans MIC 96-well plate was incubated for 37° C. for 24 to 48 hours. […] After incubation, all 96-well plates were examined visually and on a spectrophotometer at absorbance OD650. […]

[4] = system: P. aeruginosa ATCC 9027; assay: MIC determination, P. aeruginosa; conditions: CAMHB pH 7.3, 37° C., 18 to 20 hours, duplicate
Protocol: as §1, §2
For MIC determination, bacterial strains (S. aureus ATCC 6538, E. coli ATCC 8739, P. aeruginosa ATCC 9027) were grown overnight on Tryptic Soy Agar (TSA) plates at 37° C. A few colonies of each strain were collected with a sterile swab and used to make a McFarland 0.5 standard solution (approximately 1×10^8 CFU/mL) in sterile PBS. […]

[5] = system: S. aureus ATCC 6538; assay: MIC determination, S. aureus; conditions: CAMHB pH 7.3, 37° C., 18 to 20 hours, duplicate
Protocol: as §1
Strains were acquired from the American Type Culture Collection (ATCC) (Manassas, VA) and maintained as −80° C. frozen glycerol stocks: S. aureus ATCC 6538, E. coli ATCC 8739, P. aeruginosa ATCC 9027, C. albicans ATCC 10231, and A. brasiliensis ATCC 16404. […]

[6] = system: C. albicans ATCC 10231; assay: MIC determination, C. albicans; conditions: RPMI 1640 pH 7.0, 37° C., 24 to 48 hours, duplicate
Protocol: as §1, with “testing. […]” for “testing.”
as §4

[7] = system: B. subtilis BGSC 1A1276; assay: Growth reduction of B. subtilis culture (OD600 / BacTiter-Glo)
Protocol: as §3
(§5) Yeast or bacterial starter cultures were grown as described previously. Tgase (SEQ ID NO:6) was added to each culture at 0.001-1 weight percent. The cultures were grown overnight at 30° C.-37° C. and growth curves were measured by a BioTek® Synergy Plate Reader.

[8] = system: C. albicans ATCC 10231; assay: Growth reduction of C. albicans culture (OD600 / BacTiter-Glo)
Protocol: For MIC determination of yeast cultures, C. albicans ATCC 10231 was grown overnight (24 hours) in YPD media at 30° C. The following day, the cell density of the saturated cultures was calculated using OD600 and cultures were diluted to 10^4 to 10^6 CFU/mL in sterile YPD media to generate the inoculum, and 90 μL of the inoculum was combined with 10 μL of serially diluted Tgase SEQ ID NO:1 at a range of 0.0001-0.01 weight percent. The cultures were grown overnight at 30° C. and growth curves were measured by OD600 on a BioTek® Synergy Plate Reader. Optionally, the following day, a cell viability assay such as BacTiter-Glo™ (Promega®) following manufacturer's protocols) could be used to assess cell viability. A decrease in OD600 or luminescence indicated a decrease in cell viability. Results are presented as a percent reduction in cell count relative to an untreated culture. All test conditions were performed in triplicate.
as §5

[9] = Escherichia coli, ATCC8739, read-out: Concentration (MIC values; single concentration at the MIC of the chemical preservative)
[10] = CAMHB pH 7.3, 37° C., 18 to 20 hours, duplicate

CCCCC(O)CO (centres unmarked) [1,2-hexandiol]
MIC [1, 9]: 3000 µg/mL | inhibition at 3000 µg/mL ([2]; 3,000 μg/mL preservative + 400 μg/mL Tgase SEQ ID NO: 6, read-out: growth inhibition in the presence of 400 μg/mL Tgase SEQ ID NO: 6): 99.5% | inhibition at 3000 µg/mL ([2]; 3,000 μg/mL, read-out: growth inhibition): 97.9%

Cn1sccc1=O [MIT, Methylisothiazolinone]
Concentration (MIC values; single concentration at the MIC of the chemical preservative) [1]: 150 µg/mL | growth inhibition ([2]; 150 μg/mL): 98.7% | growth inhibition in the presence of 400 μg/mL Tgase SEQ ID NO: 6 ([2]; 150 μg/mL preservative + 400 μg/mL Tgase SEQ ID NO: 6): 99.8%

CCCCCCC(O)CO (centres unmarked) [1,2-octandiol]
MIC [1, 9]: 500 µg/mL | inhibition at 500 µg/mL ([2]; 500 μg/mL preservative + 400 μg/mL Tgase SEQ ID NO: 6, read-out: growth inhibition in the presence of 400 μg/mL Tgase SEQ ID NO: 6): 99.3% | inhibition at 500 µg/mL ([2]; 500 μg/mL, read-out: growth inhibition): 97.8%

O=C([O-])c1ccccc1.[Na+] [Sodium benzoate, sodium benzoate]
Concentration (MIC values; single concentration at the MIC of the chemical preservative) [1]: 10,000 μg/mL | MIC [1, 10]: 10,000 μg/mL | MIC [3]: 2,500 μg/mL and 1,250 μg/mL | growth inhibition ([2]; 10,000 μg/mL): 99.85% | growth inhibition in the presence of 400 μg/mL Tgase SEQ ID NO: 6 ([2]; 10,000 μg/mL preservative + 400 μg/mL Tgase SEQ ID NO: 6): 99.97% | MIC [4]: 10,000 μg/mL | MIC [5]: 10,000 μg/mL | MIC [6]: >20,000 μg/mL

Benzalkonium chloride
Concentration (MIC values; single concentration at the MIC of the chemical preservative) [1]: 16 µg/mL | MIC [1, 10]: 15.63 µg/mL | growth inhibition ([2]; 16 μg/mL): 99.7% | growth inhibition in the presence of 400 μg/mL Tgase SEQ ID NO: 6 ([2]; 16 μg/mL preservative + 400 μg/mL Tgase SEQ ID NO: 6): 99.94% | MIC [4]: 62.5 µg/mL and 31.25 µg/mL | MIC [6]: 3.91 µg/mL

B1: Tgase (SEQ ID NO: 1): wild-type Streptomyces mobaraensis transglutaminase, mature form, amino acid sequence SEQ ID NO:1 (protein, listed as Streptomyces mobaraensis)
chain: DSDDRVTPPAEPLDRMPDPYRPSYGRAETVVNNYIRKWQQVYSHRDGRKQQMTEEQREWLSYGCVGVTWVNSGQYPTNRLAFASFDEDRFKNELKNGRPRSGETRAEFEGRVAKESFDEEKGFQRAREVASVMNRALENAHDESAYLDNLKKELANGNDALRNEDARSPFYSALRNTPSFKERNGGNHDPSRMKAVIYSKHFWSGQDRSSSADKRKYGDPDAFRPAPGTGLVDMSRDRNIPRSPTSPGEGFVNFDYGWFGAQTEADADKTVWTHGNHYHAPNGSLGAMHVYESKFRNWSEGYSDFDRGAYVITFIPKSWNTAPDKVKQGWP
Fold improvement in enzyme efficacy ([7]; Tgase (SEQ ID NO: 1) alone = 1): 1 | growth inhibition (in words) ([7]; Tgase alone): partially inhibited | Percent Growth Reduction ([7]; enzyme concentration 960 ug/mL): 99.17% | growth inhibition (in words) ([7]; upon adding a cell membrane disruptor, lysozyme): Full inhibition | Fold improvement in enzyme efficacy ([8]; C. albicans ATCC 10231, Tgase (SEQ ID NO: 1) = 1): 1 | Percent Growth Reduction ([8]; C. albicans ATCC 10231, enzyme concentration 800 ug/mL): 83.11% | growth inhibition (in words) ([8]; C. albicans, Tgase alone): partially inhibited | growth inhibition ([2]; 960 μg/mL): 0.0% | antimicrobial activity ([2]; gram negative E. coli ATCC 8739, DH5-alpha and DH10-beta, under the concentrations evaluated): little or no detectable antimicrobial activity
